From US20260022143A1, “Cyclic Peptide Inhibitors of IL-23” (JANSSEN PHARMACEUTICA NV, priority 2022, published 2026)
Starred links: 1 amine or outer side, 2 acyl side, 3 side chain; linkers in the order of their positions; H or OH if unused. Positions of bridges follow the written chain, without caps; N, C: chain ends. Non-standard residues stand in square brackets, D forms with d. Residues, ends and D or L forms follow the SMILES beside them. ξ: configuration not given here. *: point of attachment. X33 = C[N+](C)(C)CCCCc1cn(-c2ccc(C[C@H](N[*:1])C(=O)[*:2])cc2)nn1; Me3N+CH2CH2(OCH2CH2)4CO = C[N+](C)(C)CCOCCOCCOCCOCCC(=O)*; Me3N+(CH2)2O(CH2)2O(CH2)2CO = C[N+](C)(C)CCOCCOCCC(=O)*; CH2CH2OCH2CH2OCH2CH2NMe3+ = C[N+](C)(C)CCOCCOCC*; Trp(7-Me) = Cc1cccc2c(C[C@H](N)C(=O)O)c[nH]c12; Dab(NMeAc) = CC(=O)N(C)CC[C@H](N)C(=O)O; 2Nal = N[C@@H](Cc1ccc2ccccc2c1)C(=O)O; AEF = NCCOc1ccc(C[C@H](N)C(=O)O)cc1; 3Pal = N[C@@H](Cc1cccnc1)C(=O)O; N(CH2CH2)2CF2 = FC1(F)CCN(*)CC1; ξThr(3R) = C[C@@H](O)C(N)C(=O)O; Lys(Me) = CNCCCC[C@H](N)C(=O)O; Pen = CC(C)(S)[C@H](N)C(=O)O; X49 = O=C(CCCCCCCC*)N1CCCCC1; Thp = NC1(C(=O)O)CCOCC1; X3 = C[N+](C)(C)CCCCC*; Sar = CNCC(=O)O

How the values were obtained:
IL-23R = target: T1, IL-23R (Homo sapiens, UniProt Q5VWK5); test: IL23R Reporter Assay; type: cell-based; conditions: HEK293 cells containing IL-23R, IL-12RP1 and STAT-inducible firefly luciferase reporter; 10 ng/mL IL-23 (EC90); 5 h at 37° C.; read-out: IL23R Reporter Assay
T1 construct: host or cells: HEK293
T1 sequence (Q5VWK5 24-629): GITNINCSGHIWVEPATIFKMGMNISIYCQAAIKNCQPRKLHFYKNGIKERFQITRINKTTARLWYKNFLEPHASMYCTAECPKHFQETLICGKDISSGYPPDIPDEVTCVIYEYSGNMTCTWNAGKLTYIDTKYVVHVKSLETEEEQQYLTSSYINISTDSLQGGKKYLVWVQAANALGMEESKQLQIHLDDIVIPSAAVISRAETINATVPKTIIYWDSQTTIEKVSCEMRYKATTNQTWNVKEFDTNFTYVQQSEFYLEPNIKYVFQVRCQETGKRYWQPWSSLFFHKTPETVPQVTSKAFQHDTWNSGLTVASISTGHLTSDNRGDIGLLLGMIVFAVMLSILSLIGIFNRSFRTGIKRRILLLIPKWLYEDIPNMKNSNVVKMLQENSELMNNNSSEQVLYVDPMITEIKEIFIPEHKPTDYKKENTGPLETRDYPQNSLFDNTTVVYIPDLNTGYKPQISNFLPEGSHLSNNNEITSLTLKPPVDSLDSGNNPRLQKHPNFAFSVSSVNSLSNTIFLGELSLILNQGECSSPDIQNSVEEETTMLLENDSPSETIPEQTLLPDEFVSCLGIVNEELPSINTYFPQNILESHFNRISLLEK

[1] = Exposed Polar Surface Area (EPSA); type: physicochemical; conditions: SFC on Chirex 3014 column; sample 1 mM DMSO stock; read-out: EPSA
Summary of the method: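 Chirex 3014 column, 35 °C, 4 mL/min; CO2/MeOH + 20 mM NH4 formate, 5→60% modifier at 20%/min. UV/MS detection. EPSA (Å^2) from retention time vs 8-standard calibration line; duplicates; 1 mM DMSO stock injected undiluted.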

SMILES | IC50 (IL-23R) [nM] | EPSA [1] [A^2]
Cc1cccc2c(C[C@@H]3NC(=O)[C@H]([C@@H](C)O)NC(=O)[C@H](CC(=O)N(C)C)NC(=O)[C@@H](NC(=O)CCOCCOCC[N+](C)(C)C)C(C)(C)SSC(C)(C)[C@@H](C(=O)N[C@@H](Cc4ccc(OCCN)cc4)C(=O)N[C@@H](Cc4ccc5ccccc5c4)C(=O)NC4(C(=O)N[C@@H](CCC(=O)N(C)C)C(=O)N[C@@H](CC(N)=O)C(=O)N[C@@H](Cc5cccnc5)C(=O)N(C)CC(=O)N(C)C)CCOCC4)NC(=O)[C@H](CCC(=O)N(C)C)NC3=O)c[nH]c12 [compound 139, cPEG3aCO-Pen(3)-N(N(Me)2)-T-7MeW-Q(N(Me)2)-Pen(3)-AEF-2Nal-THP-Q(N(Me)2)-N-3Pya-Sar-CON(Me)2] ({Me3N+(CH2)2O(CH2)2O(CH2)2CO}-[Pen]D(NMe2)T[Trp(7-Me)]E(NMe2)[Pen][AEF][2Nal][Thp]E(NMe2)N[3Pal][Sar]-NMe2; disulfide 1-6) | 3.4 | 150
CC(=O)N(C)CCCC[C@H](NC(=O)[C@H](C)NC(=O)[C@H](Cc1ccc2ccccc2c1)NC(=O)[C@H](Cc1ccc(OCCCCC[N+](C)(C)C)cc1)NC(=O)[C@H]1NC(=O)[C@H](CCCCN(C)C(C)=O)NC(=O)[C@H](Cc2c[nH]c3c(C)cccc23)NC(=O)C([C@@H](C)O)NC(=O)[C@H](CC(=O)N(C)C)NC(=O)[C@@H](NC(=O)CCOCCOCC[N+](C)(C)C)C(C)(C)SSC1(C)C)C(=O)N[C@@H](CC(N)=O)C(=O)N[C@@H](Cc1cccnc1)C(=O)N(C)CC(=O)N(C)C (stereo partly drawn) [compound 488, cPEG3aCO-Pen(3)-N(N(Me)2)-T-7MeW-K(NMeAc)-Pen(3)-TMAPf-2Nal-A-K(NMeAc)-N-3Pya-Sar-CON(Me)2] ({Me3N+(CH2)2O(CH2)2O(CH2)2CO}-[Pen]D(NMe2)[ξThr(3R)][Trp(7-Me)][Lys(Me)](Ac)[Pen]Y(X3)[2Nal]A[Lys(Me)](Ac)N[3Pal][Sar]-NMe2; disulfide 1-6) | 5.7 | 165
CC(=O)N(C)CCCC[C@@H]1NC(=O)[C@H](Cc2c[nH]c3c(C)cccc23)NC(=O)[C@H]([C@@H](C)O)NC(=O)[C@H](CC(=O)N(C)C)NC(=O)[C@@H](NC(=O)CCOCCOCC[N+](C)(C)C)C(C)(C)SSC(C)(C)[C@@H](C(=O)N[C@@H](Cc2ccc(OCCCCCCCCC(=O)N3CCCCC3)cc2)C(=O)N[C@@H](Cc2ccc3ccccc3c2)C(=O)NC2(C(=O)N[C@@H](CCCCN(C)C(C)=O)C(=O)N[C@@H](CC(N)=O)C(=O)N[C@@H](Cc3cccnc3)C(=O)N(C)CC(=O)N(C)C)CCOCC2)NC1=O [compound 242, cPEG3aCO-Pen(3)-N(N(Me)2)-T-7MeW-K(NMeAc)-Pen(3)-YC8COPip-2Nal-THP-K(NMeAc)-N-3Pya-Sar-CON(Me)2] ({Me3N+(CH2)2O(CH2)2O(CH2)2CO}-[Pen]D(NMe2)T[Trp(7-Me)][Lys(Me)](Ac)[Pen]Y(X49)[2Nal][Thp][Lys(Me)](Ac)N[3Pal][Sar]-NMe2; disulfide 1-6) | 25 | 145
CC(=O)N(C)CCCC[C@H](NC(=O)[C@H](CC(C)C)NC(=O)[C@H](Cc1ccc2ccccc2c1)NC(=O)[C@H](Cc1ccc(OCCOCCOCC[N+](C)(C)C)cc1)NC(=O)[C@H]1NC(=O)[C@H](CC(C)C)NC(=O)[C@H](Cc2c[nH]c3c(C)cccc23)NC(=O)[C@H]([C@@H](C)O)NC(=O)[C@H](CC(C)C)NC(=O)[C@@H](NC(=O)CCOCCOCC[N+](C)(C)C)C(C)(C)SSC1(C)C)C(=O)N[C@@H](CC(N)=O)C(=O)N[C@@H](Cc1cccnc1)C(=O)N(C)CC(=O)N(C)C [compound 463, cPEG3aCO-Pen(3)-L-T-7MeW-L-Pen(3)-APEG3f-2Nal-L-K(NMeAc)-N-3Pya-Sar-CON(Me)2] ({Me3N+(CH2)2O(CH2)2O(CH2)2CO}-[Pen]LT[Trp(7-Me)]L[Pen]Y(CH2CH2OCH2CH2OCH2CH2NMe3+)[2Nal]L[Lys(Me)](Ac)N[3Pal][Sar]-NMe2; disulfide 1-6) | 9 | 151
CC(=O)NCCCC[C@@H]1NC(=O)[C@H](Cc2c[nH]c3c(-c4cccc(NC(C)=O)c4)cccc23)NC(=O)[C@H]([C@@H](C)O)NC(=O)[C@H](CC(N)=O)NC(=O)[C@@H](NC(C)=O)C(C)(C)SSC(C)(C)[C@@H](C(=O)N[C@@H](Cc2ccc(OCCCCC[N+](C)(C)C)cc2)C(=O)N[C@@H](Cc2ccc3ccccc3c2)C(=O)NC2(C(=O)N[C@@H](CCC(=O)O)C(=O)N[C@@H](CC(N)=O)C(=O)N[C@@H](Cc3cncc(C)c3)C(=O)N(C)CC(N)=O)CCOCC2)NC1=O [compound 504, MeCO-Pen(3)-N-T-7(3NAcPh)W-K(Ac)-Pen(3)-TMAPF-2Nal-THP-E-N-5MePyridinAla-Sar-CONH2] | 8.6 | 178
CC(=O)NCCCC[C@@H]1NC(=O)[C@H](Cc2c[nH]c3c(C)cccc23)NC(=O)[C@H]([C@@H](C)O)NC(=O)[C@H](CC(N)=O)NC(=O)[C@@H](NC(=O)CCOCCOCC[N+](C)(C)C)C(C)(C)SSC(C)(C)[C@@H](C(=O)N[C@@H](Cc2ccc(-n3cc(CCCC[N+](C)(C)C)nn3)cc2)C(=O)N[C@@H](Cc2ccc3ccccc3c2)C(=O)NC2(C(=O)N[C@@H](CCCCNC(C)=O)C(=O)N[C@@H](CC(N)=O)C(=O)N[C@@H](Cc3cccnc3)C(=O)N(C)CC(N)=O)CCOCC2)NC1=O [compound 424, cPEG3aCO-Pen(3)-N-T-7MeW-K(Ac)-Pen(3)-F(4TzlTMA4)-2Nal-THP-K(Ac)-N-3Pya-Sar-CONH2] ({Me3N+(CH2)2O(CH2)2O(CH2)2CO}-[Pen]NT[Trp(7-Me)]K(Ac)[Pen][X33][2Nal][Thp]K(Ac)N[3Pal][Sar]-NH2; disulfide 1-6) | 2.6 | 165
CC(=O)N(C)CCCC[C@@H]1NC(=O)[C@H](Cc2c[nH]c3c(C)cccc23)NC(=O)[C@H]([C@@H](C)O)NC(=O)[C@H](CC(=O)N(C)C)NC(=O)[C@@H](NC(=O)CCOCCOCC[N+](C)(C)C)C(C)(C)SSC(C)(C)[C@@H](C(=O)N[C@@H](Cc2ccc(OCCCCC[N+](C)(C)C)cc2)C(=O)N[C@@H](CC(C)C)C(=O)NC2(C(=O)N[C@@H](CCCCN(C)C(C)=O)C(=O)N[C@@H](CC(N)=O)C(=O)N[C@@H](Cc3cccnc3)C(=O)N(C)CC(=O)N(C)C)CCOCC2)NC1=O [compound 499, cPEG3aCO-Pen(3)-N(N(Me)2)-T-7MeW-K(NMeAc)-Pen(3)-TMApF-L-THP-K(NMeAc)-N-3Pya-Sar-CON(Me)2] ({Me3N+(CH2)2O(CH2)2O(CH2)2CO}-[Pen]D(NMe2)T[Trp(7-Me)][Lys(Me)](Ac)[Pen]Y(X3)L[Thp][Lys(Me)](Ac)N[3Pal][Sar]-NMe2; disulfide 1-6) | > 1630 | 133
CC(=O)NC(COCCOCC[N+](C)(C)C)C(=O)N[C@@H]1C(=O)N[C@@H](CC(=O)N(C)C)C(=O)N[C@@H]([C@@H](C)O)C(=O)N[C@@H](Cc2c[nH]c3c(C)cccc23)C(=O)N[C@@H](CCCCN(C)C(C)=O)C(=O)N[C@H](C(=O)N[C@@H](Cc2ccc(OCCOCCOCC[N+](C)(C)C)cc2)C(=O)N[C@@H](Cc2ccc3ccccc3c2)C(=O)NC2(C(=O)N[C@@H](CCCCN(C)C(C)=O)C(=O)N[C@@H](CC(N)=O)C(=O)N[C@@H](Cc3cccnc3)C(=O)N(C)CC(=O)N(C)C)CCOCC2)C(C)(C)SSC1(C)C (relative stereo) [compound 319, MeCO-APEG2Ser(R*)-Pen(3)-N(N(Me)2)-T-7MeW-K(NMeAc)-Pen(3)-APEG3F-2Nal-THP-K(NMeAc)-N-3Pya-Sar-CON(Me)2] | 1.8 | 151
CC(=O)N(C)CC[C@H](NC(=O)C1(NC(=O)[C@H](Cc2ccc3ccccc3c2)NC(=O)[C@H](Cc2ccc(OCCN)cc2)NC(=O)[C@H]2NC(=O)[C@H](CCC(=O)N(C)C)NC(=O)[C@H](Cc3c[nH]c4c(C)cccc34)NC(=O)[C@H]([C@@H](C)O)NC(=O)[C@H](CC(=O)N(C)C)NC(=O)[C@@H](NC(=O)CCOCCOCCOCCOCC[N+](C)(C)C)C(C)(C)SSC2(C)C)CCOCC1)C(=O)N[C@@H](CC(N)=O)C(=O)N[C@@H](Cc1cccnc1)C(=O)N(C)CC(=O)N(C)C [compound 173, cPEG5aCO-Pen(3)-N(N(Me)2)-T-7MeW-Q(N(Me)2)-Pen(3)-AEF-2Nal-THP-Dab(NMeAc)-N-3Pya-Sar-CON(Me)2] ({Me3N+CH2CH2(OCH2CH2)4CO}-[Pen]D(NMe2)T[Trp(7-Me)]E(NMe2)[Pen][AEF][2Nal][Thp][Dab(NMeAc)]N[3Pal][Sar]-NMe2; disulfide 1-6 (inferred)) | 3.1 | 144
CC(=O)NCCCC[C@@H]1NC(=O)[C@H](Cc2c[nH]c3c(C)cccc23)NC(=O)[C@H]([C@@H](C)O)NC(=O)[C@H](CC(N)=O)NC(=O)[C@@H](NC(C)=O)C(C)(C)SSC(C)(C)[C@@H](C(=O)N[C@@H](Cc2ccc(OCCN)cc2)C(=O)N[C@@H](Cc2ccc3ccccc3c2)C(=O)NC2(C(=O)N[C@@H](CCC(=O)O)C(=O)N[C@@H](CC(N)=O)C(=O)N[C@@H](Cc3cccnc3)C(=O)N(C)CC(=O)N3CCC(F)(F)CC3)CCOCC2)NC1=O [compound 136] (Ac-[Pen]NT[Trp(7-Me)]K(Ac)[Pen][AEF][2Nal][Thp]EN[3Pal][Sar]-{N(CH2CH2)2CF2}; disulfide 1-6 (inferred)) | 2.6 | 169
